The values below come from US20260070899A1, “N-(2-(4-CYANOTHIAZOLIDIN-3-YL)-2-OXOETHYL)-QUINOLINE-4-CARBOXAMIDES” (AstraZeneca AB, priority 2022, published 2026).

Structures are written as SMILES. ≈ marks a conversion by molar mass, not a printed value.

In series [1] the target is T1, Prolyl endopeptidase, Prolyl Oligopeptidase (hPREP) (Homo sapiens, UniProt P48147).
T1 sequence (P48147 1-710): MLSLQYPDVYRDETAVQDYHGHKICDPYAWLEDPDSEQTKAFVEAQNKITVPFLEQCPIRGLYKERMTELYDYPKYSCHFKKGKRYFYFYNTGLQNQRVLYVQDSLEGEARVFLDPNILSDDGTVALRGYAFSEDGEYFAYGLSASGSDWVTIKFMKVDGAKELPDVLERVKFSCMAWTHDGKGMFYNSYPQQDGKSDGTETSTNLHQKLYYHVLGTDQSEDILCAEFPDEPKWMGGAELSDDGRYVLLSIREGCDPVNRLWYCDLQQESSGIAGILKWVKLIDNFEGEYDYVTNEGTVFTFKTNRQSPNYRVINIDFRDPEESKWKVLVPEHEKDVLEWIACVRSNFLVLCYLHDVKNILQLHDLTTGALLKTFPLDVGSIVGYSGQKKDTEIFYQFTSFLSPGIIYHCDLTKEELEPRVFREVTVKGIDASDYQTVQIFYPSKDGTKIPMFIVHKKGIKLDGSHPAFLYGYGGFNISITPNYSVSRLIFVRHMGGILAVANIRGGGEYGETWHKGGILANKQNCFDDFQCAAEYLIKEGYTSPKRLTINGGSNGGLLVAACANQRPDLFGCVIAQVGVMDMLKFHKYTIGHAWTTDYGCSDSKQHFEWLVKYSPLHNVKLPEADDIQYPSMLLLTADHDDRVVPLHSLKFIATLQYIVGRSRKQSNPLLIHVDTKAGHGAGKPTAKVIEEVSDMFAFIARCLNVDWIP
Put plainly: biochemical.
Method: Compounds were tested in a biochemical inhibition assay using Prolyl endopeptidase, Prolyl Oligopeptidase (hPREP) enzyme at 0.6 nM FAC (R&D Systems, 4308-SE) and the substrate Z-Gly-Pro-amino-methylcoumarin (Bachem, I-1145) at 50 μM FAC. 384 Low volume black plates (Greiner #784076) were used. […] Plates were incubated for 15 min at rt in dark. 4 μL, 100 μM substrate solution (25 mM Tris HCl, 250 mM NaCl, 0.01% Triton X-100, 5 mM Glutathione, pH 7.5) was added to each well. Plates were centrifuged at 1000 rpm and incubated for 20 min at rt in dark. The plates were read on a PHERAstar® reader with excitation 340 nm and emission 460 nm. Data were analyzed in Genedata Screener®. IC50 values were determined by plotting % inhibition versus log compound concentration and using a one site dose response model.

A short description of the next series: Kinetic solubility. The series is classed as physicochemical. As to conditions: kinetic from dmso stock, n = 1 or average (n = 2-4). As to the method: Kinetic solubility was measured as described in Comput Aided Mol Des 2015, 29, 795.
The subject of a further series is Rat Hepatocytes (rHep). Nature of the series: Metabolic stability in rat hepatocytes (rHep). The series is classed as in vitro ADME. As to conditions: n = 1 or geometric mean (n = 2-3). As to the method:
Metabolic stability in rat hepatocytes was measured as described in J Comput Aided Mol Des 2015, 29, 795.

Series [2] in a line: Metabolic stability in human liver microsomes (HLM). The series is classed as in vitro ADME. As to conditions: n = 1 or average (n = 2-3). As to the method:
Metabolic stability in HLM was measured as described in J Comput Aided Mol Des 2015, 29, 795.

Another series deals with T2, hFAP (Homo sapiens, UniProt Q12884).
T2 sequence (Q12884 38-760): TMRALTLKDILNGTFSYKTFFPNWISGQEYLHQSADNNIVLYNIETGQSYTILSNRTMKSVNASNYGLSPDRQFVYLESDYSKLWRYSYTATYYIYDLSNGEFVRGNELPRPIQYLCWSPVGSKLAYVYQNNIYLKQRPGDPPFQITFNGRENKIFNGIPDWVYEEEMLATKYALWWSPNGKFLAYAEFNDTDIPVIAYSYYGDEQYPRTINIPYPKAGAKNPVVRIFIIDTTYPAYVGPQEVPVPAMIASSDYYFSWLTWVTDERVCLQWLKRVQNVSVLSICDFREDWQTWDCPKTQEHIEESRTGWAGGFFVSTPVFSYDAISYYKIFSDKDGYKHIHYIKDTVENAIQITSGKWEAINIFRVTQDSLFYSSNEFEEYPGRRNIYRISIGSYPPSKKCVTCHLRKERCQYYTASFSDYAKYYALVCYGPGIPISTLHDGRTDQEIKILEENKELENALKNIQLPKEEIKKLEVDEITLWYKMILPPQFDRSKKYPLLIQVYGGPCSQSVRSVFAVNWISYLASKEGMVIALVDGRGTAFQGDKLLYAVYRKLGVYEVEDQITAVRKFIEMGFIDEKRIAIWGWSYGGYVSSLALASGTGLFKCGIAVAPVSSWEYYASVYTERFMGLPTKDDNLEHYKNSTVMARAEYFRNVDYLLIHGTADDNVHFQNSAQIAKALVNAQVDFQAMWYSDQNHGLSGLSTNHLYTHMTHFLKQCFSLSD
Put plainly: biochemical.

The target in another series is T3, hFAP (M39-A757) (Homo sapiens, UniProt Q12884).
T3 sequence (Q12884 39-757): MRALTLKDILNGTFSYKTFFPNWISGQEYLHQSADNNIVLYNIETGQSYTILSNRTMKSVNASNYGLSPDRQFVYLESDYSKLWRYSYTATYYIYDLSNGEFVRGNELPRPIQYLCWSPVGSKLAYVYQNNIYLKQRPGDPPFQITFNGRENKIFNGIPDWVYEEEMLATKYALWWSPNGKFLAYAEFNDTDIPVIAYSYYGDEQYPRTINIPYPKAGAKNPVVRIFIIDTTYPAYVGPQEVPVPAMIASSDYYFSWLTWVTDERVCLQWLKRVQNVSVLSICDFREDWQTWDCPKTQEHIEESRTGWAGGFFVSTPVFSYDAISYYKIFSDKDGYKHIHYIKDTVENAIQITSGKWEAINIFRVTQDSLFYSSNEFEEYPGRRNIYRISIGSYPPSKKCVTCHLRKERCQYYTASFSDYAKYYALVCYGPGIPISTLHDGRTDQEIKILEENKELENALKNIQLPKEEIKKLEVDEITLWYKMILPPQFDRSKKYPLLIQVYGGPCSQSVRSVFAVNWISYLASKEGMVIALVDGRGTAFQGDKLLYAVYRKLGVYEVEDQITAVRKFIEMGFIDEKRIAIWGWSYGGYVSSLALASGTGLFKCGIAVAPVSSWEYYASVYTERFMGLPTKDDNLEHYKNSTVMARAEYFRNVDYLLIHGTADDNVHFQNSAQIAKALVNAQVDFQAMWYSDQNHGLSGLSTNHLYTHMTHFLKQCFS
Nature of the series: biochemical.
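Wherever Kd is given: surface plasmon resonance direct binding to hFAP amine-coupled on a sensor chip, rising compound concentrations by single cycle kinetics, Kd from global fit of interaction models.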

Method for hFAP (M39-A757): Compounds were tested in a direct binding assay using 8K surface plasmon resonance biosensor (GE Healthcare) at 20° C. Immobilization of hFAP (M39-A757) on a CMD200M sensor chip (Xantec) was performed using standard amine coupling procedure in immobilization buffer (10 mM HEPES, 150 mM NaCl, 0.05% Tween20, pH 7.4). The surface was washed with 10 mM aq NaOH, 1M NaCl before being activated with EDC/NHS (GE Healthcare), followed by immobilization of hFAP (in 10 mM Acetate pH 5.0). Finally, the surface was deactivated by ethanolamine. Immobilization levels of hFAP were around 4000-6000 RU. The reference spot was treated as described, omitting the injection of hFAP. Compound concentration series were injected over the immobilized protein in increasing concentrations (2-500 nM) using single cycle kinetics in running buffer (20 mM TRIS, 150 mM NaCl, 0.05% Tween20, 1% DMSO, pH 7.4). Interaction models were fitted globally to the experimental traces, enabling determination of kon, koff and Kd.

In series [1], `CC(F)(F)Cc1ccc2nccc(C(=O)NCC(=O)N3CSC[C@H]3C#N)c2c1` [Example 53, (R)—N-(2-(4-Cyanothiazolidin-3-yl)-2-oxoethyl)-6-(2,2-difluoropropyl)quinoline-4-carboxamide] returned a half-maximal inhibitory concentration (IC50) of 6.5 nM. The solubility in “Kinetic solubility” was 190 µM (≈ 76.8 µg/mL). Besides, in the series on Rat Hepatocytes (rHep), the “rHeps CLint” value came to 45 μL/min/1E6. For the same compound, the intrinsic metabolic clearance (microsomal CLint) in series [2] worked out at 36 µL/min/mg.

In turn, `N#C[C@@H]1CSCN1C(=O)CNC(=O)c1ccnc2ccc(C3(C#N)CCCCC3)cc12` [Example 60, (R)-6-(1-Cyanocyclohexyl)-N-(2-(4-cyanothiazolidin-3-yl)-2-oxoethyl)quinoline-4-carboxamide] gave an IC50 in series [1] of 290 nM. The same compound had a solubility in the series “Kinetic solubility” of 180 µM (≈ 78 µg/mL). In addition, the “rHeps CLint” value in the series on Rat Hepatocytes (rHep) is given as 110 μL/min/1E6. Moreover, the microsomal CLint in series [2] was greater than 300 µL/min/mg.

With `N#C[C@@H]1CSCN1C(=O)CNC(=O)c1ccnc2ccc([C@]34CCOC[C@H]3C4)cc12` (racemic) [Example 69, 6-((1RS,6SR)-3-Oxabicyclo[4.1.0]heptan-6-yl)-N-(2-((R)-4-cyanothiazolidin-3-yl)-2-oxoethyl)quinoline-4-carboxamide], the IC50 came out at 350 nM in series [1] and 0.2 nM at hFAP. For the same compound, the Kd at hFAP (M39-A757) amounted to 0.026 nM.

As for `CC1(C)CC(c2ccc3nccc(C(=O)NCC(=O)N4CSC[C@H]4C#N)c3c2)CO1` (mixture of isomers) [Example 61, N-(2-((R)-4-Cyanothiazolidin-3-yl)-2-oxoethyl)-6-(5,5-dimethyltetrahydrofuran-3-yl)quinoline-4-carboxamide], in series [1], half-maximal inhibition (IC50) was put at 640 nM. The compound further came in with a solubility in “Kinetic solubility” greater than 1000 µM. The “rHeps CLint” value with Rat Hepatocytes (rHep) worked out at 23 μL/min/1E6. The microsomal CLint in series [2] came to 77 µL/min/mg.

Turning to `N#C[C@@H]1CSCN1C(=O)CNC(=O)c1ccnc2ccc(OC(CF)CF)cc12` [Example 7, (R)—N-(2-(4-Cyanothiazolidin-3-yl)-2-oxoethyl)-6-((1,3-difluoropropan-2-yl)oxy)quinoline-4-carboxamide], in series [1], the IC50 turned out to be 150 nM. This compound showed a solubility in the series “Kinetic solubility” of 550 µM (≈ 231 µg/mL). In addition, the “rHeps CLint” value in the series on Rat Hepatocytes (rHep) stood at 9.1 μL/min/1E6. In addition, in series [2], the intrinsic clearance (microsomal CLint) worked out at 40 µL/min/mg.

Turning to `COCC(OC)c1ccc2nccc(C(=O)NCC(=O)N3CSC[C@H]3C#N)c2c1` (mixture of isomers) [Example 30, N-(2-((R)-4-Cyanothiazolidin-3-yl)-2-oxoethyl)-6-((RS)-1,2-dimethoxyethyl)quinoline-4-carboxamide], the half-maximal inhibitory concentration (IC50) was determined as 1700 nM in series [1] and 1.7 nM on hFAP. Further, the Kd at hFAP (M39-A757) was 0.63 nM.

In the case of `COC(C)c1ccc2nccc(C(=O)NCC(=O)N3CSC[C@H]3C#N)c2c1` (mixture of isomers) [Example 26, N-(2-((R)-4-Cyanothiazolidin-3-yl)-2-oxoethyl)-6-((RS)-1-methoxyethyl)quinoline-4-carboxamide], the IC50 in series [1] came to 470 nM; at hFAP, 0.84 nM. Also, on hFAP (M39-A757), the Kd worked out at 4.7 nM.

For the compound `CC1(C)CC(c2ccc3nccc(C(=O)NCC(=O)N4CSC[C@H]4C#N)c3c2)CCO1` (mixture of isomers) [Example 68, N-(2-((R)-4-Cyanothiazolidin-3-yl)-2-oxoethyl)-6-((RS)-2,2-dimethyltetrahydro-2H-pyran-4-yl)quinoline-4-carboxamide], the IC50 stood at 330 nM in series [1] and 0.3 nM at hFAP. The Kd at hFAP (M39-A757) amounted to 0.075 nM.

Compound `N#C[C@@H]1CSCN1C(=O)CNC(=O)c1ccnc2ccc(OCC3CC(F)(F)C3)cc12` [Example 8, (R)—N-(2-(4-Cyanothiazolidin-3-yl)-2-oxoethyl)-6-((3,3-difluorocyclobutyl)methoxy)quinoline-4-carboxamide] yielded a half-maximal inhibitory concentration (IC50) in series [1] of 1200 nM. Also, the concentration in solution in the series “Kinetic solubility” (solubility) came to 8.3 µM (≈ 3.71 µg/mL). In addition, the “rHeps CLint” value in the series on Rat Hepatocytes (rHep) came out at 11 μL/min/1E6. This compound returned a microsomal CLint in series [2] of 45 µL/min/mg.

As for `N#C[C@@H]1CSCN1C(=O)CNC(=O)c1ccnc2ccc(C3COCCO3)cc12` (mixture of isomers) [Example 33, N-(2-((R)-4-Cyanothiazolidin-3-yl)-2-oxoethyl)-6-((RS)-1,4-dioxan-2-yl)quinoline-4-carboxamide], the half-inhibitory concentration (IC50) in series [1] came out at 680 nM; on hFAP, 0.54 nM. In addition, binding at hFAP (M39-A757) was characterised by a dissociation constant (Kd) of 0.3 nM.

As for `Cc1conc1Cc1ccc2nccc(C(=O)NCC(=O)N3CSC[C@H]3C#N)c2c1` [Example 38, (R)—N-(2-(4-Cyanothiazolidin-3-yl)-2-oxoethyl)-6-((4-methylisoxazol-3-yl)methyl)quinoline-4-carboxamide], the IC50 amounted to 180 nM in series [1] and 0.21 nM at hFAP. Also, on hFAP (M39-A757), the dissociation constant (Kd) came out at 0.34 nM.

In series [1], `N#C[C@@H]1CSCN1C(=O)CNC(=O)c1ccnc2ccc(CCC(F)(F)F)cc12` [Example 58, (R)—N-(2-(4-Cyanothiazolidin-3-yl)-2-oxoethyl)-6-(3,3,3-trifluoropropyl)quinoline-4-carboxamide] returned an IC50 of 64 nM. This compound returned a solubility in the series “Kinetic solubility” of 700 µM (≈ 296 µg/mL). For the same compound, the “rHeps CLint” value with Rat Hepatocytes (rHep) was determined as 17 μL/min/1E6. Also, in series [2], the intrinsic clearance (microsomal CLint) was determined as 77 µL/min/mg.

As to `Cc1cc(C)c(Cc2ccc3nccc(C(=O)NCC(=O)N4CSC[C@H]4C#N)c3c2)cn1` [Example 39, (R)—N-(2-(4-Cyanothiazolidin-3-yl)-2-oxoethyl)-6-((4,6-dimethylpyridin-3-yl)methyl)quinoline-4-carboxamide], the IC50 in series [1] worked out at 530 nM; at hFAP, 0.34 nM. This compound gave a Kd on hFAP (M39-A757) of 0.18 nM.

On to `Cc1nn(C)nc1Cc1ccc2nccc(C(=O)NCC(=O)N3CSC[C@H]3C#N)c2c1` [Example 19, (R)—N-(2-(4-Cyanothiazolidin-3-yl)-2-oxoethyl)-6-((2,5-dimethyl-2H-1,2,3-triazol-4-yl)methyl)quinoline-4-carboxamide], for which the results for the IC50 (in series [1]; on hFAP) were 590 nM and 0.22 nM, respectively. Besides, on hFAP (M39-A757), the equilibrium dissociation constant (Kd) stood at 0.1 nM.

Take `N#C[C@@H]1CSCN1C(=O)CNC(=O)c1ccnc2ccc(C3CCCO3)cc12` (mixture of isomers) [Example 34, N-(2-((R)-4-Cyanothiazolidin-3-yl)-2-oxoethyl)-6-((RS)-tetrahydrofuran-2-yl)quinoline-4-carboxamide]: the IC50 in series [1] came out at 460 nM; against hFAP, 0.61 nM. The compound also showed a Kd at hFAP (M39-A757) of 0.31 nM.
